# Source: ChEMBL document CHEMBL4706632, “Development of Potential Antitumor Agents from the Scaffolds of Plant-Derived Terpenoid Lactones” (J Med Chem, 2020)
# How the values were obtained:
# HT-29 [1] = experiment: Cytotoxicity against human HT-29 cells incubated for 24 hrs by MTS method; assay type: functional, cell-based; conditions: HT-29, 24 h
# [2] = Cytotoxicity against human MDA-Panc-28 cells incubated for 24 hrs by MTS method; assay type: functional, cell-based; conditions: MDA-Panc-28, 24 h
# Bel-7402 = experiment: Cytotoxicity against human Bel-7402 cells incubated for 24 hrs by MTS method; assay type: functional, cell-based; conditions: Bel-7402, 24 h
# HT-29 [3] = experiment: Cytotoxicity against human HT-29 cells incubated for 72 hrs by sulforhodamine B assay; assay type: functional, cell-based; conditions: HT-29, 72 h
# HeLa = experiment: Cytotoxicity against human HeLa cells; assay type: functional, cell-based
# NCI-H446 = experiment: Cytotoxicity against human NCI-H446 cells; assay type: functional, cell-based
# MCF7 [4] = experiment: Cytotoxicity against human MCF7 cells; assay type: functional, cell-based
# P388 [5] = experiment: Cytotoxicity against mouse P388 cells incubated for 48 hrs by MTT assay; assay type: functional, cell-based; conditions: P388, 48 h
# A549 = experiment: Antiproliferative activity against human A549 cells incubated for 48 hrs by MTT assay; assay type: functional, cell-based; conditions: A549, 48 h
# NCI-H1975 = experiment: Antiproliferative activity against human NCI-H1975 cells incubated for 48 hrs by MTT assay; assay type: functional, cell-based; conditions: NCI-H1975, 48 h
# MDA-MB-231 [6] = experiment: Cytotoxicity against human MDA-MB-231 cells incubated for 48 hrs by MTT assay; assay type: functional, cell-based; conditions: MDA-MB-231, 48 h
# HT-29 [7] = experiment: Cytotoxicity against human HT-29 cells incubated for 48 hrs by MTT assay; assay type: functional, cell-based; conditions: HT-29, 48 h
# HL-60 [8] = experiment: Antiproliferative activity against human HL-60 cells incubated for 24 hrs by MTT assay; assay type: functional, cell-based; conditions: HL-60, 24 h
# MCF7 [9] = experiment: Antiproliferative activity against human MCF7 cells incubated for 48 hrs by SRB assay; assay type: functional, cell-based; conditions: MCF7, 48 h
# A2058 = experiment: Cytotoxicity against human A2058 cells incubated for 48 hrs by MTT assay; assay type: functional, cell-based; conditions: A2058, 48 h
# HCT-116 [10] = experiment: Cytotoxicity against human HCT-116 cells; assay type: functional, cell-based
# HL-60 [11] = experiment: Antiproliferative activity against human HL-60 cells; assay type: functional, cell-based
# P388 [12] = experiment: Antiproliferative activity against mouse P388 cells; assay type: functional, cell-based
# CCRF-CEM = experiment: Cytotoxicity against human CEM cells incubated for 72 hrs by MTT assay; assay type: functional, cell-based
# [13] = Cytotoxicity against human Lu-1 cells; assay type: functional, cell-based; conditions: Lu1
# HL-60 [14] = experiment: Cytotoxicity against human HL-60 cells incubated for 72 hrs by ATPlite assay; assay type: functional, cell-based; conditions: HL-60, 72 h
# HCT-116 [15] = experiment: Cytotoxicity against human HCT116 cells incubated for 72 hrs by ATPlite assay; assay type: functional, cell-based; conditions: HCT-116, 72 h
# WM 266-4 = experiment: Cytotoxicity against human WM 266-4 cells incubated for 72 hrs by ATPlite assay; assay type: functional, cell-based; conditions: WM 266-4, 72 h
# Jurkat [16] = experiment: Cytotoxicity against human Jurkat cells incubated for 72 hrs by ATPlite assay; assay type: functional, cell-based
# SW626 = experiment: Cytotoxicity against human SW626 cells; assay type: functional, cell-based
# LNCaP [17] = experiment: Cytotoxicity against human LNCaP cells; assay type: functional, cell-based
# L1210 = experiment: Cytotoxicity against mouse L1210 cells; assay type: functional, cell-based
# [18] = Antiproliferative activity against human OVCA429 cells incubated for 72 hrs by MTT assay; assay type: functional, cell-based; conditions: OVCA429, 72 h
# [19] = Suppression of ZEB1 protein level in human T-24 cells incubated for 24 hrs by Western blot analysis; assay type: functional, cell-based; conditions: T-24, 24 h
# [20] = Inhibition of [3H]PAF-acether binding to PAFR in rabbit platelet plasma membranes incubated for 1 hr; assay type: cell membranes, Oryctolagus cuniculus, Cell membrane
# [21] = Inhibition of PAFR in New Zealand rabbit platelets assessed as reduction in PAF-induced platelet aggregation measured within 5 mins by aggregometry analysis; assay type: tissue-based; conditions: Oryctolagus cuniculus
# MDA-MB-231 [22] = experiment: Antiproliferative activity against human MDA-MB-231 cells incubated for 24 hrs by MTT assay; assay type: functional, cell-based; conditions: MDA-MB-231, 24 h
# MCF7 [23] = experiment: Antiproliferative activity against human MCF7 cells incubated for 24 hrs by MTT assay; assay type: functional, cell-based; conditions: MCF7, 24 h
# [24] = Cmax in Sprague-Dawley rat at 10 mg/kg, po measured after 0.25 to 72 hrs by LC/QTOF/MS method; assay type: ADME, organism-based; design: route oral, time upper 72 hrs, time lower 0.25 hrs, dose 10 mg/kg; conditions: in vivo
# [25] = Cmax in Sprague-Dawley rat at 10 mg/kg, iv measured after 0.08 to 72 hrs by LC/QTOF/MS method; assay type: ADME, organism-based; design: route intravenous, dose 10 mg/kg, time upper 72 hrs, time lower 0.08 hrs; conditions: in vivo
# Jurkat [26] = experiment: Antiproliferative activity against human Jurkat cells incubated for 3 to 6 days by alamar blue assay; assay type: functional, cell-based
# Raji = experiment: Antiproliferative activity against human Raji cells incubated for 3 to 6 days by alamar blue assay; assay type: functional, cell-based
# SW1990 = experiment: Antiproliferative activity against human SW1990 incubated for 72 hrs by alamar blue assay; assay type: functional, cell-based; conditions: SW1990, 72 h
# PC-3 = experiment: Antiproliferative activity against human PC-3 cells incubated for 72 hrs by CCK8 assay; assay type: functional, cell-based; conditions: PC-3, 72 h
# [27] = Antitumor activity against human PaTu8988 cells xenografted in NOD/SCID mouse assessed as tumor growth inhibition at 5 mg/kg, ip administered daily for 60 days by digital caliper method relative to control; assay type: functional; conditions: 1440 h, time 60 day, read-out: TGI
# BXPC-3 = experiment: Antiproliferative activity against human BXPC-3 incubated for 72 hrs by alamar blue assay; assay type: functional, cell-based; conditions: BXPC-3, 72 h
# MGC-803 = experiment: Cytotoxicity against human MGC-803 cells incubated for 72 hrs by Alamar Blue method; assay type: functional, cell-based; conditions: MGC-803, 72 h
# LNCaP [28] = experiment: Antiproliferative activity against human LNCaP cells incubated for 72 hrs by CCK8 assay; assay type: functional, cell-based
# PANC-1 = experiment: Cytotoxicity against human Panc-1 cells incubated for 72 hrs by alamar blue assay; assay type: functional, cell-based; conditions: PANC-1, 72 h
# HGC-27 = experiment: Cytotoxicity against human HGC-27 cells incubated for 72 hrs by Alamar Blue method; assay type: functional, cell-based; conditions: HGC-27, 72 h
# SW480 = experiment: Cytotoxicity against human SW480 cells incubated for 72 hrs by Cell Titer-Glo luminescence assay; assay type: functional, cell-based; conditions: SW480, 72 h
# SGC-7901 = experiment: Cytotoxicity against human SGC-7901 cells incubated for 72 hrs by Alamar Blue method; assay type: functional, cell-based; conditions: SGC-7901, 72 h
# DU-145 = experiment: Antiproliferative activity against human DU-145 cells incubated for 72 hrs by CCK8 assay; assay type: functional, cell-based; conditions: DU-145, 72 h
# AGS = experiment: Cytotoxicity against human AGS cells incubated for 72 hrs by Alamar Blue method; assay type: functional, cell-based
# ASPC1 = experiment: Antiproliferative activity against human ASPC1 incubated for 72 hrs by alamar blue assay; assay type: functional, cell-based; conditions: ASPC1, 72 h
# [29] = Antiproliferative activity against human PaTu8988 incubated for 72 hrs by alamar blue assay; assay type: functional; conditions: PaTu8988, 72 h
# NCI-N87 = experiment: Cytotoxicity against human NCI-N87 cells incubated for 72 hrs by Alamar Blue method; assay type: functional, cell-based; conditions: NCI-N87, 72 h
# CFPAC-1 = experiment: Antiproliferative activity against human CFPAC-1 incubated for 72 hrs by alamar blue assay; assay type: functional, cell-based; conditions: CFPAC-1, 72 h
# RKO = experiment: Cytotoxicity against human RKO cells incubated for 72 hrs by Cell Titer-Glo luminescence assay; assay type: functional, cell-based
smiles,measurement,setting,value
CO[C@@]12OC(=O)C(CO)=C1[C@H]1O[C@]13CC[C@@H]1C(C)(C)CCC[C@@]1(C)[C@@H]3[C@H]2O,IC50,HT-29 [1],> 50000 nM
same,IC50,[2],> 50000 nM
same,IC50,Bel-7402,> 50000 nM
COC/C(C)=C/[C@@H]1OC(=O)[C@H]([C@@H]2CC[C@]34C[C@]23C=C[C@@H]2[C@@]3(C)CC=C5C[C@@H](c6ccc7c(c6)OCO7)OC[C@]5(C)[C@@H]3C[C@@H](O)[C@]24C)[C@H]1O,IC50,HT-29 [3],> 10000 nM
C[C@@]12[C@H](O)C=C[C@]3(C)C(=O)O[C@H](C=C4COC(=O)C[C@H]41)[C@H]23,IC50,HeLa,10000 nM
same,IC50,NCI-H446,16000 nM
same,IC50,MCF7 [4],11000 nM
CC(C)[C@H]1OC(=O)C=C2[C@@]13O[C@@H]3[C@H]1OC(=O)[C@@]3(C)[C@@H](O)CC[C@@]2(C)[C@@H]13,IC50,P388 [5],720 nM
same,IC50,A549,5200 nM
same,IC50,NCI-H1975,3600 nM
C=C1CC[C@@H]2[C@](C)(CO)[C@H](O)CC[C@@]2(C)[C@@H]1C/C=C1/C(=O)OC[C@H]1O [ANDROGRAPHOLIDE],IC50,MDA-MB-231 [6],> 30000 nM
same,IC50,HT-29 [7],> 30000 nM
same,IC50,HL-60 [8],2400 nM
same,IC50,MCF7 [9],15000 nM
same,IC50,A2058,26000 nM
same,IC50,HCT-116 [10],> 40000 nM
same,IC50,HL-60 [11],7000 nM
same,IC50,P388 [12],2900 nM
C/C(=C\[C@H]1C[C@@H]([C@@H]2CC[C@]34C[C@]23C=C[C@@H]2[C@@]3(C)CC=C5C[C@@H](c6ccccc6)OC[C@]5(C)[C@@H]3C[C@@H](O)[C@]24C)C(=O)O1)CO [DICHAPETALIN A],IC50,CCRF-CEM,9600 nM
same,IC50,[13],7000 nM
same,IC50,HL-60 [14],11000 nM
same,EC50,HCT-116 [15],250 nM
same,EC50,WM 266-4,17000 nM
same,IC50,Jurkat [16],3000 nM
same,IC50,SW626,340 nM
same,IC50,LNCaP [17],12000 nM
same,EC90,L1210,< 0.17 nM
C[C@@H]1C(=O)O[C@H]2[C@H](O)[C@@]34[C@H]5C[C@@H](C(C)(C)C)[C@]36[C@@H](OC(=O)[C@@H]6O)O[C@@]4(C(=O)O5)[C@@]12O [GINKOLIDE B],IC50,[18],> 50000 nM
same,IC50,[19],500 nM
same,IC50,[20],250 nM
same,IC50,[21],130 nM
COC(=O)C[C@H]1[C@]2(C)C3=C(C)[C@H](c4ccoc4)C[C@H]3O[C@@H]2[C@@H]2OC(=O)[C@]3(C)C=CC(=O)[C@@]1(C)[C@@H]23 [NIMBOLIDE],IC50,MDA-MB-231 [22],6000 nM
same,IC50,MCF7 [23],4000 nM
same,Cmax,[24],15.3 ng/mL
same,Cmax,[25],5560 ng/mL
CC(C)[C@]12O[C@H]1[C@@H]1O[C@@]13[C@@]1(C)CCC4=C(COC4=O)[C@@H]1C[C@@H]1O[C@@]13C2=O [TRIPTONIDE],IC50,Jurkat [26],4 nM
same,IC50,Raji,4 nM
same,IC50,SW1990,< 20 nM
same,IC50,PC-3,12 nM
same,inhibition in vivo at 5 mg/kg,[27],97.5%
same,IC50,BXPC-3,< 20 nM
same,IC50,MGC-803,< 20 nM
same,IC50,LNCaP [28],10 nM
same,IC50,PANC-1,< 20 nM
same,IC50,HGC-27,< 20 nM
same,IC50,SW480,17 nM
same,IC50,SGC-7901,< 20 nM
same,IC50,DU-145,10 nM
same,IC50,AGS,< 20 nM
same,IC50,ASPC1,< 20 nM
same,IC50,[29],< 20 nM
same,IC50,NCI-N87,< 20 nM
same,IC50,CFPAC-1,< 20 nM
same,IC50,RKO,15 nM
